Results on 29 compounds are retold here after US20160376240A1, “6 Phenyl or 6 Pyridin 3 YL Indazole Derivatives and Methods of Use” (ABBVIE INC., priority 2014, published 2016).

The target of this assay is T1, TrkA (Homo sapiens, UniProt P04629).
T1 construct: purchased Invitrogen PV3144
The assay can be described thus: TrkA kinase inhibition, HTRF assay. In kind it is biochemical. To be noted: LCK peptide substrate 125 nM, TrkA 2-10 nM pre-incubated with ATP 200 μM. The method in brief:
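TrkA (2-10 nM) preactivated 20 min with 200 μM ATP in HEPES pH 7.4 with Mg2+/Mn2+, then compound for 10 min, then 125 nM biotinylated LCK-peptide for 1 h at ambient temperature. HTRF 665/620 ratio read; IC50 fitted from initial-rate percent inhibition.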
For orientation: TR-FRET usually uses a lanthanide donor and a delayed reading to cut background.

Molecules are shown by their SMILES. pIC50: −log10 of the molar value.

T1 sequence (P04629 33-796): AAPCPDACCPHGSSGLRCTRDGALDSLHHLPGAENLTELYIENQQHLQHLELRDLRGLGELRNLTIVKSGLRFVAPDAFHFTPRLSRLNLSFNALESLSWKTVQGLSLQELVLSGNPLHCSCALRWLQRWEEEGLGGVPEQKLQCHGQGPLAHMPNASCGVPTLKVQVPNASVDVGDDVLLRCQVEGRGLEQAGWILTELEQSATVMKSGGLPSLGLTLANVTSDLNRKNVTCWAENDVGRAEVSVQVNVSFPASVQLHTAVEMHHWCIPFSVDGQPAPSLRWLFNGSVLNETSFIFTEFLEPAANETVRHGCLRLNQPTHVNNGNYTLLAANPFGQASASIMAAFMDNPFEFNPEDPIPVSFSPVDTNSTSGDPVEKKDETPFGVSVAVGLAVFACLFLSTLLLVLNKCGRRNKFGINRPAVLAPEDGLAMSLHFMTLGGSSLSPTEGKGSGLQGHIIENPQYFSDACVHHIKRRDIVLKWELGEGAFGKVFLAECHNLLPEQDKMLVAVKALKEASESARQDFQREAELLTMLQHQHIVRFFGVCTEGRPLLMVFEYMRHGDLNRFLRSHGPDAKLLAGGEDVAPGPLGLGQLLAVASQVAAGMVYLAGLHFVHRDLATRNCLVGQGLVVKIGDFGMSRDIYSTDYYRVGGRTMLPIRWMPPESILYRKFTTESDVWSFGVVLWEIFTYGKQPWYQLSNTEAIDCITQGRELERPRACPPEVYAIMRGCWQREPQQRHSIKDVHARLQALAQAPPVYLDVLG

One may read the pIC50 as −log10 of the IC50, conventionally taken in molar units. `CNC(=O)c1ccc(-c2cc(OC3CCOCC3)c3c(C)n[nH]c3c2)cc1N1CCN(C(=O)NC(C)C)CC1` [Example 155, N-isopropyl-4-{2-(methylcarbamoyl)-5-[3-methyl-4-(tetrahydro-2H-pyran-4-yloxy)-1H-indazol-6-yl]phenyl}piperazine-1-carboxamide] had a negative-log IC50 (pIC50) of 8.64.
Then `NC(=O)c1ccc(-c2cc(OC3CCCC3)c3c(N)n[nH]c3c2)cc1N1CCC(C(N)=O)CC1` [Example 79, 1-{5-[3-amino-4-(cyclopentyloxy)-1H-indazol-6-yl]-2-carbamoylphenyl}piperidine-4-carboxamide], with 6.66; and `CNC(=O)c1ccc(-c2cc(OC(C)C(F)(F)F)c3c(N)n[nH]c3c2)cc1N1CCN(CCN2CCOCC2)CC1` (centres unmarked) [Example 37, 4-{3-amino-4-[(1,1,1-trifluoropropan-2-yl)oxy]-1H-indazol-6-yl}-N-methyl-2-{4-[2-(morpholin-4-yl)ethyl]piperazin-1-yl}benzamide], with 6.18; and `CC(Oc1cc(-c2ccc(C(N)=O)c(N3CCN(C(=O)C(C)(C)C)CC3)c2)cc2[nH]nc(N)c12)C(F)(F)F` (centres unmarked) [Example 104, 4-{3-amino-4-[(1,1,1-trifluoropropan-2-yl)oxy]-1H-indazol-6-yl}-2-[4-(2,2-dimethylpropanoyl)piperazin-1-yl]benzamide], with 7.85.
Then `NC(=O)c1ccc(-c2cc(OC3CCCC3)c3c(N)n[nH]c3c2)cc1N1CCN(CC(=O)N2CCCCC2)CC1` [Example 107, 4-[3-amino-4-(cyclopentyloxy)-1H-indazol-6-yl]-2-{4-[2-oxo-2-(piperidin-1-yl)ethyl]piperazin-1-yl}benzamide], with 7.36; and `CNC(=O)c1ccc(-c2cc(OC3CCOCC3)c3c(C)n[nH]c3c2)cc1N1CCN(C(=O)OC(C)(C)C)CC1` [Example 122, tert-butyl 4-{2-(methylcarbamoyl)-5-[3-methyl-4-(tetrahydro-2H-pyran-4-yloxy)-1H-indazol-6-yl]phenyl}piperazine-1-carboxylate], with 8.09.
Then `NC(=O)c1ccc(-c2cc(OC3CCOCC3)c3c(N)n[nH]c3c2)cc1N1CCN(CCCO)CC1` [Example 7, 4-[3-amino-4-(tetrahydro-2H-pyran-4-yloxy)-1H-indazol-6-yl]-2-[4-(3-hydroxypropyl)piperazin-1-yl]benzamide], with 6.15.
`CNC(=O)c1ccc(-c2cc(OC3CCOCC3)c3c(C)n[nH]c3c2)cc1N1CCN(Cc2ccccc2)C(=O)C1` [Example 159, 2-(4-benzyl-3-oxopiperazin-1-yl)-N-methyl-4-[3-methyl-4-(tetrahydro-2H-pyran-4-yloxy)-1H-indazol-6-yl]benzamide]: the pIC50 is 7.67.
`CNC(=O)c1ccc(-c2cc(OC3CCOCC3)c3c(C)n[nH]c3c2)cc1N1CCN(C(=O)OCC(F)(F)F)CC1` [Example 136, 2,2,2-trifluoroethyl 4-{2-(methylcarbamoyl)-5-[3-methyl-4-(tetrahydro-2H-pyran-4-yloxy)-1H-indazol-6-yl]phenyl}piperazine-1-carboxylate]: the pIC50 was 7.74.
Regarding `CC(Oc1cc(-c2ccc(C(N)=O)c(N3CCN(C4CC4)CC3)c2)cc2[nH]nc(N)c12)C(F)(F)F` (centres unmarked) [Example 97, 4-{3-amino-4-[(1,1,1-trifluoropropan-2-yl)oxy]-1H-indazol-6-yl}-2-(4-cyclopropylpiperazin-1-yl)benzamide], the negative logarithm of the IC50 (pIC50) is 7.56. The pIC50 values of the last two compounds are within 0.2 log units of each other.
Turning to `NC(=O)c1ccc(-c2cc(O[C@H]3CCOC3)c3c(N)n[nH]c3c2)cc1N1CCN(c2cccnc2)CC1` [Example 67, 4-{3-amino-4-[(3S)-tetrahydrofuran-3-yloxy]-1H-indazol-6-yl}-2-[4-(pyridin-3-yl)piperazin-1-yl]benzamide], the pIC50 was 8.10.
For `CNC(=O)c1ccc(-c2cc(OC3CCOCC3)c3c(C)n[nH]c3c2)cc1N1CCN(c2ncc(F)cn2)CC1` [Example 165, 2-[4-(5-fluoropyrimidin-2-yl)piperazin-1-yl]-N-methyl-4-[3-methyl-4-(tetrahydro-2H-pyran-4-yloxy)-1H-indazol-6-yl]benzamide] the value was 5.98; for `CNC(=O)c1ccc(-c2cc(OC3CCOCC3)c3c(N)n[nH]c3c2)cc1N1CCN(CC2CC2(F)F)CC1` (centres unmarked) [Example 173, 4-[3-amino-4-(tetrahydro-2H-pyran-4-yloxy)-1H-indazol-6-yl]-2-{4-[(2,2-difluorocyclopropyl)methyl]piperazin-1-yl}-N-methylbenzamide], 7.79; for `CNC(=O)c1ccc(-c2cc(O[C@H](C)C(F)(F)F)c3c(N)n[nH]c3c2)cc1N1CCC(C2CCCCC2)CC1` [Example 61, 4-(3-amino-4-{[(2R)-1,1,1-trifluoropropan-2-yl]oxy}-1H-indazol-6-yl)-2-(4-cyclohexylpiperidin-1-yl)-N-methylbenzamide], 6.87.
Consider `CNC(=O)c1ccc(-c2cc(OC3CCOCC3)c3c(N)n[nH]c3c2)cc1N1CCN(CCC(F)(F)F)CC1` [Example 168, 4-[3-amino-4-(tetrahydro-2H-pyran-4-yloxy)-1H-indazol-6-yl]-N-methyl-2-[4-(3,3,3-trifluoropropyl)piperazin-1-yl]benzamide], for which the negative-log IC50 (pIC50) was 7.94.
Then `CNC(=O)c1ccc(-c2cc(OC3CCOCC3)c3c(C)n[nH]c3c2)cc1N1CCN(C(=O)OC(C)C(F)(F)F)CC1` (centres unmarked) [Example 163, 1,1,1-trifluoropropan-2-yl 4-{2-(methylcarbamoyl)-5-[3-methyl-4-(tetrahydro-2H-pyran-4-yloxy)-1H-indazol-6-yl]phenyl}piperazine-1-carboxylate], with 6.77; and `CNC(=O)c1ccc(-c2cc(OC(C)C(F)(F)F)c3c(N)n[nH]c3c2)cc1N1CCN(c2cccnc2)CC1` (centres unmarked) [Example 36, 4-{3-amino-4-[(1,1,1-trifluoropropan-2-yl)oxy]-1H-indazol-6-yl}-N-methyl-2-[4-(pyridin-3-yl)piperazin-1-yl]benzamide], with 7.59.
As for `CNC(=O)c1ccc(-c2cc(OC3CCOCC3)c3c(C)n[nH]c3c2)cc1N1CCN(C(=O)OCC(C)(C)C)CC1` [Example 137, 2,2-dimethylpropyl 4-{2-(methylcarbamoyl)-5-[3-methyl-4-(tetrahydro-2H-pyran-4-yloxy)-1H-indazol-6-yl]phenyl}piperazine-1-carboxylate], the negative logarithm of the IC50 (pIC50) was 7.24.
For `CNC(=O)c1ccc(-c2cc(O[C@H](C)C(F)(F)F)c3c(N)n[nH]c3c2)cc1N1CCN(C(=O)C(C)(C)C)CC1` [Example 54, 4-(3-amino-4-{[(2R)-1,1,1-trifluoropropan-2-yl]oxy}-1H-indazol-6-yl)-2-[4-(2,2-dimethylpropanoyl)piperazin-1-yl]-N-methylbenzamide] the value was 7.00.
As to `CNC(=O)c1ccc(-c2cc(OC(C)C(F)(F)F)c3c(N)n[nH]c3c2)cc1N1CCN(c2ccccc2)CC1` (centres unmarked) [Example 33, 4-{3-amino-4-[(1,1,1-trifluoropropan-2-yl)oxy]-1H-indazol-6-yl}-N-methyl-2-(4-phenylpiperazin-1-yl)benzamide], the pIC50 is 7.55. Compared with the last compound, the pIC50 is 0.55 log units higher.
Then `CC(=O)Nc1ccc(-c2cc(OC3CCOCC3)c3c(C)n[nH]c3c2)cc1N1CCN(C(=O)OC(C)(C)C)CC1` [Example 141, tert-butyl 4-{2-acetamido-5-[3-methyl-4-(tetrahydro-2H-pyran-4-yloxy)-1H-indazol-6-yl]phenyl}piperazine-1-carboxylate], with 8.42.
For `CC(=O)c1ccc(-c2cc(OC3CCOCC3)c3c(N)n[nH]c3c2)cc1N1CCN(C2CC2)CC1` [Example 14, 1-{4-[3-amino-4-(tetrahydro-2H-pyran-4-yloxy)-1H-indazol-6-yl]-2-(4-cyclopropylpiperazin-1-yl)phenyl}ethanone], the pIC50 is 6.96. This pIC50 lies 1.46 log units lower than the previous one.
Regarding `CNC(=O)c1ccc(-c2cc(OC3CCOCC3)c3c(C)n[nH]c3c2)cc1N1CCN(C(=O)CC2CC2)CC1` [Example 164, 2-[4-(cyclopropylacetyl)piperazin-1-yl]-N-methyl-4-[3-methyl-4-(tetrahydro-2H-pyran-4-yloxy)-1H-indazol-6-yl]benzamide], the negative-log IC50 (pIC50) is 8.06.
Regarding `Cc1n[nH]c2cc(-c3ccc(C#N)c(N4CCN(C(=O)OC(C)(C)C)CC4)c3)cc(OC3CCOCC3)c12` [Example 139, tert-butyl 4-{2-cyano-5-[3-methyl-4-(tetrahydro-2H-pyran-4-yloxy)-1H-indazol-6-yl]phenyl}piperazine-1-carboxylate], the negative logarithm of the IC50 (pIC50) was 8.16. This pIC50 and that of the compound before are within 0.2 log units of each other.
The compound `CC(Oc1cc(-c2ccc(C(N)=O)c(N3CCN(C4CCCCC4)CC3)c2)cc2[nH]nc(N)c12)C(F)(F)F` (centres unmarked) [Example 93, 4-{3-amino-4-[(1,1,1-trifluoropropan-2-yl)oxy]-1H-indazol-6-yl}-2-(4-cyclohexylpiperazin-1-yl)benzamide] gave a pIC50 of 7.57.
`CNC(=O)c1ccc(-c2cc(O[C@@H](C)C(F)(F)F)c3c(N)n[nH]c3c2)cc1N1CCN(C2CCCC2)CC1` [Example 44, 4-(3-amino-4-{[(2S)-1,1,1-trifluoropropan-2-yl]oxy}-1H-indazol-6-yl)-2-(4-cyclopentylpiperazin-1-yl)-N-methylbenzamide] showed a negative-log IC50 (pIC50) of 7.60.
`Cc1n[nH]c2cc(-c3ccc(C(=O)NC4CC4)c(N4CCN(c5ccccc5)CC4)c3)cc(OC3CCOCC3)c12` [Example 117, N-cyclopropyl-4-[3-methyl-4-(tetrahydro-2H-pyran-4-yloxy)-1H-indazol-6-yl]-2-(4-phenylpiperazin-1-yl)benzamide] gave a pIC50 of 7.75.
For `CNC(=O)c1ccc(-c2cc(OC(C)C(F)(F)F)c3c(N)n[nH]c3c2)cc1N1CCN(c2cnccn2)CC1` (centres unmarked) [Example 38, 4-{3-amino-4-[(1,1,1-trifluoropropan-2-yl)oxy]-1H-indazol-6-yl}-N-methyl-2-[4-(pyrazin-2-yl)piperazin-1-yl]benzamide] the value was 7.51.
For `CNC(=O)c1ccc(-c2cc(OC3CCOCC3)c3c(N)n[nH]c3c2)cc1N1CCN(C(=O)OC(C)(C)C)CC1` [Example 111, tert-butyl 4-{5-[3-amino-4-(tetrahydro-2H-pyran-4-yloxy)-1H-indazol-6-yl]-2-(methylcarbamoyl)phenyl}piperazine-1-carboxylate] the value was 7.57.
